# Reference: patent publication US8785399B2, “Antibacterial peptides” (Spiderbiotech S.R.A., priority 2008, dated 2014)
# Positions of bridges follow the written chain, without caps; N, C: chain ends. Non-standard residues stand in square brackets, D forms with d. Residues, ends and D or L forms follow the SMILES beside them. Chains are numbered I, II in the order given. βAla = NCCC(=O)O
# What was measured:
# [1] = system: Pseudomonas aeruginosa ATCC 27853; assay: MIC by broth microdilution, P. aeruginosa reference strain; type: cell-based
# Procedure: (§1) Determination of MIC. MICs were determined in MHB by the broth microdilution methodology, according to CLSI procedure (formerly NCCLS, Ref. 11) by using final bacterial inocula of 1-5×10^5 CFU/mL. Assays were performed in sterile 96-well microtiter plates with round bottom wells (Corning Costar). Plates were incubated at 37° C. and read after 20-24 h. MIC was defined as the lowest drug concentration causing complete suppression of visible bacterial growth. All compounds were dissolved in (5% v/v DMSO).
# (§2) These peptides were synthesized individually, in order to assay the activity of each sequence.
# E. coli ATCC 25922 = assay: MIC by broth microdilution, E. coli reference strain; type: cell-based, Escherichia coli
# Procedure: as §1
# All natural aminoacids have been divided into three groups based on their chemical-physical properties. A total amount of 27 minilibraries, each one containing six peptide in equimolar amounts, were obtained and assayed against E. coli ATCC 25922 as reference strain. MIC (Minimum Inhibitory Concentration) is defined as the lowest concentration inhibiting 100% of visible growth.
# Acinetobacter iwoffi = type: cell-based
# Procedure: as §1
# (§3) These compounds were tested against a large panel of Gram-negative clinical isolates and the relative MIC values were reported in Table 5 (parts 1-3)
# Escherichia coli = type: cell-based
# Procedure: as §1, §3
# [2] = system: Stenotrophomonas maltophilia; type: cell-based
# Procedure: as §1, §3
# Klebsiella oxytoca = type: cell-based
# Procedure: as §1, §3
# Klebsiella pneumoniae = type: cell-based
# Procedure: as §1, §3
# Serratia marcescens = type: cell-based
# Procedure: as §1, §3
# Acinetobacter baumannii = type: cell-based
# Procedure: as §1, §3
# Pseudomonas aeruginosa = type: cell-based
# Procedure: as §1, §3
# Proteus mirabilis = type: cell-based
# Procedure: as §1, §3
# Enterobacter cloacae = type: cell-based
# Procedure: as §1, §3
# [3] = system: Klebsiella pneumoniae ATCC 10031; assay: MIC by broth microdilution, K. pneumoniae reference strain; type: cell-based
# Procedure: as §1, §2
# Shigella = assay: MIC vs clinical isolates, Shigella; type: cell-based; conditions: Shigella strain ND024108
# Procedure: as §1, §3
# whole blood = type: cell-based
# Procedure: Whole blood was collected in a sterile tube with a 4% w/v sodium citrate solution (in a 1:10 ratio sodium citrate:whole blood) and conserved in ice. Serial dilutions of ID24 (1 mg/mL to 62.5 ug/mL) were added to whole blood in a ratio 1:1 or 1:10. The haemolytic potential was expressed relative to saponine, added in the same ratio, considered as 100% haemolysis. The negative control was whole blood in physiologic solution, which gave minimal lysis. 100 uL aliquots of each suspension were added in sterile 96-well microtiter plates (Nunc) in triplicate. The plates were incubated at 37° C. for 30 minutes.
# Subsequently, the suspension were pelletted by centrifugation at 1000 g for 10 minutes at 4° C. One hundred microliters of supernatant from each well was transferred accordingly to a new 96-well microtiter plate, and the amount of haemoglobin released into the supernatant was determined by reading the absorbance at 560 nm.
# In Table 8, haemolysis percentages of different amounts of ID24 in a 1:1 ratio with whole blood are listed, while in Table 9 haemolysis percentages of different amounts of ID24 in a 1:10 ratio with whole blood are reported. The amount of haemoglobin released into the supernatant was determined by reading the absorbance at 560 nm.
# [4] = system: Staphylococcus aureus ATCC 25923
# Procedure: as §1, §2
molecule,measurement,setting,value
"CC[C@H](C)[C@H](NC(=O)[C@H](CCCCN)NC(=O)[C@H](CCCCN)NC(=O)[C@@H](N)Cc1c[nH]c2ccccc12)C(=O)N[C@@H](CCCNC(=N)N)C(=O)N[C@H](C(=O)N[C@@H](CCCNC(=N)N)C(=O)N[C@@H](CC(C)C)C(=O)N[C@@H](CO)C(=O)N[C@@H](C)C(=O)NCCCC[C@H](NC(=O)[C@H](C)NC(=O)[C@H](CO)NC(=O)[C@H](CC(C)C)NC(=O)[C@H](CCCNC(=N)N)NC(=O)[C@@H](NC(=O)[C@H](CCCNC(=N)N)NC(=O)[C@@H](NC(=O)[C@H](CCCCN)NC(=O)[C@H](CCCCN)NC(=O)[C@@H](N)Cc1c[nH]c2ccccc12)[C@@H](C)CC)C(C)C)C(=O)NCCC(N)=O)C(C)C [ID18, (H-W-KKIRVRLSA)2-Lys-β-Ala-NH2] (I: H-WKKIRVRLSAK[βAla]-NH2 / II: H-WKKIRVRLSA; amide I:11-II:C)",MIC (ug/mL) P. aeruginosa,[1]; Table 4,32 µg/mL
same,MIC (ug/mL) E. coli,E. coli ATCC 25922; Table 4,4 µg/mL
same,MIC,Acinetobacter iwoffi,16 µg/mL
same,MIC Range,Escherichia coli,2 to 32 µg/mL
same,MIC Range,[2],8 to 32 µg/mL
same,MIC,Klebsiella oxytoca,32 µg/mL
same,MIC Range,Klebsiella oxytoca,32 µg/mL
same,MIC Range,Klebsiella pneumoniae,4 to 16 µg/mL
same,MIC,Serratia marcescens,>128 µg/mL
same,MIC Range,Acinetobacter baumannii,8 to 16 µg/mL
same,MIC Range,Pseudomonas aeruginosa,8 to 16 µg/mL
same,MIC,Proteus mirabilis,>128 µg/mL
same,MIC Range,Proteus mirabilis,>128 µg/mL
same,MIC Range,Enterobacter cloacae,4 to 32 µg/mL
same,MIC (ug/mL) K. pneumoniae,[3]; Table 4,32 µg/mL
same,MIC,Shigella,4 µg/mL
saponine,Haemolysis %,whole blood,100%
same,"Haemolysis, %",whole blood,100%
"H-YKKIRVRLSA-OH [ID7, H-Y-KKIRVRLSA-OH]",MIC (ug/mL) P. aeruginosa,[1]; ATCC 27853,256 µg/mL
same,MIC (ug/mL) E. coli,E. coli ATCC 25922; ATCC 25922,256 µg/mL
same,MIC (ug/mL) K. pneumoniae,[3]; ATCC 10031,>512 µg/mL
same,MIC (ug/mL) S. aureus,[4],>512 µg/mL
"H-VKKIRVRLSA-OH [ID5, H-V-KKIRVRLSA-OH]",MIC (ug/mL) P. aeruginosa,[1]; ATCC 27853,512 µg/mL
same,MIC (ug/mL) E. coli,E. coli ATCC 25922; ATCC 25922,512 µg/mL
same,MIC (ug/mL) K. pneumoniae,[3]; ATCC 10031,>512 µg/mL
same,MIC (ug/mL) S. aureus,[4],512 µg/mL
"H-QWKIRVRLSA-OH [ID12, H-Q-W-KIRVRLSA-OH]",MIC (ug/mL) P. aeruginosa,[1]; ATCC 27853,64 µg/mL
same,MIC (ug/mL) E. coli,E. coli ATCC 25922; ATCC 25922,64 µg/mL
same,MIC (ug/mL) K. pneumoniae,[3]; ATCC 10031,>512 µg/mL
same,MIC (ug/mL) S. aureus,[4],>512 µg/mL
"H-QYKIRVRLSA-OH [ID13, H-Q-Y-KIRVRLSA-OH]",MIC (ug/mL) P. aeruginosa,[1]; ATCC 27853,>512 µg/mL
same,MIC (ug/mL) E. coli,E. coli ATCC 25922; ATCC 25922,>256 µg/mL
same,MIC (ug/mL) K. pneumoniae,[3]; ATCC 10031,>512 µg/mL
same,MIC (ug/mL) S. aureus,[4],>512 µg/mL
